Results as given in EP0354453A2, “Antimicrobial agent for animals” (priority 1988, dated 1990).

Assays:
[1] = test system: pathogenic bacteria derived from animals; assay: in vitro antimicrobial activity, Part 1, overall comparison; assay type: cell-based; details: summary of Table 2
Experimental: (§1) Test microorganisms listed in Table 2 were cultured overnight in heart infusion nutrient broth (produced by Eiken Chemical Co., Ltd.). Culture broth containing about 10⁸/ml cells was diluted to a volume of 100 times. An aliquot (about 0.05 ml) of the diluted broth was inoculated onto a Mueller Hinton agar plate (produced by Eiken Chemical Co., Ltd.) to which Compound No. 1 was added in a prescribed concentration. […]

[2] = test system: Mycoplasma gallisepticum Strain 2012; assay: in vitro antimicrobial activity (MIC) in Frey liquid medium; assay type: cell-based; details: Mycoplasmoides gallisepticum, STRAIN2012; Mycoplasma gallisepticum Strain 2012, from chicken; Frey liquid medium, 37°C, 3-5 days; read-out: MIC
Experimental: (§2) Various test strains of Mycoplasma gallisepticum derived from chicken were cultured in a Frey liquid medium for Mycoplasma for 3 days. The culture broth containing about 10⁸/ml cells was diluted to a volume of 100 times. The diluted broth was inoculated into Frey liquid media for Mycoplasma to which the compounds of this invention were added at prescribed concentrations. The cells were incubated at 37°C for 3-5 days while daily observing the color of the media. Among the culture broths maintaining yellow color at the time when the control to which no test compound was added turned red, the concentration of the broth having the minimum concentration was taken as the MIC of the compound.

[3] = test system: Mycoplasma gallisepticum Strain 2004; assay: as above; assay type: cell-based; details: Mycoplasmoides gallisepticum, STRAIN2004; Mycoplasma gallisepticum Strain 2004, from chicken; Frey liquid medium, 37°C, 3-5 days; read-out: MIC
Experimental: as §2

[4] = test system: Mycoplasma gallisepticum Strain T-2; assay: as above; assay type: cell-based; details: Mycoplasmoides gallisepticum; Mycoplasma gallisepticum Strain T-2, from chicken; Frey liquid medium, 37°C, 3-5 days; read-out: MIC
Experimental: as §2

[5] = test system: Mycoplasma gallisepticum Strain DP-1047; assay: as above; assay type: cell-based; details: Mycoplasmoides gallisepticum; Mycoplasma gallisepticum Strain DP-1047, from chicken; Frey liquid medium, 37°C, 3-5 days; read-out: MIC
Experimental: as §2

[6] = test system: Mycoplasma gallisepticum Strain T-7; assay: as above; assay type: cell-based; details: Mycoplasmoides gallisepticum, Mycoplasma gallisepticum Strain T-7, from chicken, 37°C, 3-5 days
Experimental: as §2

[7] = test system: Mycoplasma gallisepticum; assay: Effect of oral administration on chicken inoculated with Mycoplasma gallisepticum; assay type: in vivo; details: for Chickens developing disease in air sac (naked eye observation) / No. of dead chickens: 5 tested chickens
Experimental: Mycoplasma gallisepticum cells collected from chickens having respiratory Mycoplasma infection were cultured for 3 days in a Frey liquid media for Mycoplasma. 0.2 ml of this culture broth was injected into the trachea of chickens of an average body weight of 80 g using a 1 ml disposable injection needle. Beginning from the next day following the inoculation, feeds to which Compound (1) had been added in the amount of 100 ppm, 75 ppm, or 50 ppm were freely given to the chickens for 5 days. Following the administration of Compound (1) the chickens were given feed containing no drug for a further 5 days. The surviving chickens were sacrificed and dissected. After examination of the degree of disease in the air sac, Mycoplasma gallisepticum in the infraorbital sinus, trachea, lung, and air sac were determined. […] TABLE 6 […]

[8] = test system: Escherichia coli; assay: Effect of oral administration on chicken inoculated with Escherichia coli; assay type: in vivo; details: for Chickens developing disease in air sac (naked eye observation) / No. of dead chickens: 5 tested chickens
Experimental: Escherichia coli cells collected from infected chicken were cultured overnight in a trypticase soy broth (BBL). 0.2 ml of this culture broth was injected into the trachea of chickens of average body weight of 80 g using a 1 ml disposable injection needle. Beginning 2 hours after the inoculation, feeds to which Compound (1) had been added in the amount of 50 ppm, 25 ppm, or 12.5 ppm were freely given to the chickens for 5 days. Following the administration of Compound (1) the chickens were given feed with no addition of drug for 5 days. The surviving chickens were sacrificed and dissected. After examination of the degree of disease in the air sac, Escherichia coli in the trachea, lung, and air sac were quantitatively determined. […]

[9] = test system: Escherichia coli 139; assay: in vitro antimicrobial activity (MIC), agar dilution, Part 2; assay type: cell-based; details: Escherichia coli 139, Cow; read-out: MIC
Experimental: as §1
(§3) MIC of Compounds (1)-(8) against various pathogenic bacteria derived from animals was determined in the same manner as in Example 1.

[10] = test system: Bordetella bronchiaseptica OKM-1; assay: as above; assay type: cell-based; details: Bordetella, OKM1, Bordetella bronchiaseptica OKM-1, Pig; read-out: MIC
Experimental: as §1, §3

[11] = test system: Escherichia coli S6W; assay: as above; assay type: cell-based; details: Escherichia coli, S6W, Escherichia coli S6W, Chicken; read-out: MIC
Experimental: as §1, §3

[12] = test system: Salmonella typhimurium 569; assay: as above; assay type: cell-based; details: Salmonella enterica, TYPHIMURIUM, Salmonella typhimurium 569, Pig; read-out: MIC
Experimental: as §1, §3

[13] = test system: Salmonella typhimurium 103; assay: as above; assay type: cell-based; details: Salmonella enterica; Salmonella typhimurium 103, Chicken; read-out: MIC
Experimental: as §1, §3

[14] = test system: Escherichia coli 881; assay: as above; assay type: cell-based; details: Escherichia coli, 881, Escherichia coli 881, Pig; read-out: MIC
Experimental: as §1, §3

[15] = test system: Staphylococcus aureus Yamaguchi 6; assay: as above; assay type: cell-based; details: Staphylococcus aureus Yamaguchi 6, Chicken; read-out: MIC
Experimental: as §1, §3

[16] = test system: Escherichia coli 15-4; assay: in vitro antimicrobial activity (MIC), agar dilution, Part 1; assay type: cell-based; details: 154; Escherichia coli 15-4, Cow; Mueller Hinton agar, 37°C, 18-24 hours
Experimental: as §1

[17] = test system: Escherichia coli 442; assay: as above; assay type: cell-based; details: Escherichia coli 442, Chicken; Mueller Hinton agar, 37°C, 18-24 hours
Experimental: as §1

[18] = test system: Salmonella typhimurium 595; assay: as above; assay type: cell-based; details: Salmonella enterica; Salmonella typhimurium 595, Pig; Mueller Hinton agar, 37°C, 18-24 hours
Experimental: as §1

[19] = test system: Bordetella bronchiaseptica AR3; assay: as above; assay type: cell-based; details: Bordetella bronchiaseptica AR3, Pig; Mueller Hinton agar, 37°C, 18-24 hours
Experimental: as §1

[20] = test system: Salmonella typhimurium 101; assay: as above; assay type: cell-based; details: Salmonella enterica; Salmonella typhimurium 101, Chicken; Mueller Hinton agar, 37°C, 18-24 hours
Experimental: as §1

[21] = test system: Escherichia coli 164; assay: as above; assay type: cell-based; details: Escherichia coli 164, Pig; Mueller Hinton agar, 37°C, 18-24 hours
Experimental: as §1

[22] = test system: Staphylococcus aureus Aichi 2; assay: as above; assay type: cell-based; details: AICHI2; Staphylococcus aureus Aichi 2, Chicken; Mueller Hinton agar, 37°C, 18-24 hours
Experimental: as §1

## C[C@H]1COc2c(N3CCN(C)CC3)c(F)cc3c(=O)c(C(=O)O)cn1c23 [Compound (1), 3S-9-fluoro-2,3-dihydro-3-methyl-10-(4-methyl-1-piperazinyl)-7-oxo-7H-pyrido[1,2,3-de] [1,4]benzoxazine-6-carboxylic acid hemihydrate]
[1]
  antimicrobial activities compared with Ofloxacin: higher antimicrobial activities than its known racemic isomer (Ofloxacin)
[2]
  MIC: 0.025 mg/L
[3]
  MIC: 0.0125 mg/L
[4]
  MIC: 0.05 mg/L
[5]
  MIC: 0.025 mg/L
[6]
  MIC: 0.05 mg/L
[7]; 50 ppm in feed for 5 days
  Mycoplasma gallisepticum collected in Air sac: 2.32 Logarithmic number of collected cells per 1 g of tissue
  Mycoplasma gallisepticum collected in Infraorbital sinus: 0/5
  Mycoplasma gallisepticum collected in Lung: 0 Logarithmic number of collected cells per 1 g of tissue
  Mycoplasma gallisepticum collected in Trachea: 0 Logarithmic number of collected cells per 1 g of tissue
  Chickens developing disease in air sac (naked eye observation): 0
  No. of dead chickens: 0
[7]; 75 ppm in feed for 5 days
  Mycoplasma gallisepticum collected in Air sac: 0 Logarithmic number of collected cells per 1 g of tissue
  Mycoplasma gallisepticum collected in Infraorbital sinus: 0/5
  Mycoplasma gallisepticum collected in Lung: 0 Logarithmic number of collected cells per 1 g of tissue
  Mycoplasma gallisepticum collected in Trachea: 0 Logarithmic number of collected cells per 1 g of tissue
  Chickens developing disease in air sac (naked eye observation): 0
  No. of dead chickens: 0
[7]; 100 ppm in feed for 5 days
  Mycoplasma gallisepticum collected in Air sac: 0 Logarithmic number of collected cells per 1 g of tissue
  Mycoplasma gallisepticum collected in Infraorbital sinus: 0/5
  Mycoplasma gallisepticum collected in Lung: 0 Logarithmic number of collected cells per 1 g of tissue
  Mycoplasma gallisepticum collected in Trachea: 0 Logarithmic number of collected cells per 1 g of tissue
  Chickens developing disease in air sac (naked eye observation): 0
  No. of dead chickens: 0
[8]; 12.5 ppm in feed for 5 days
  Escherichia coli collected in Air sac: 3.99 Logarithmic number of collected cells per 1 g of tissue
  Escherichia coli collected in Lung: 2.78 Logarithmic number of collected cells per 1 g of tissue
  Escherichia coli collected in Trachea: 2.78 Logarithmic number of collected cells per 1 g of tissue
  Chickens developing disease in air sac (naked eye observation): 3
  No. of dead chickens: 1
[8]; 25 ppm in feed for 5 days
  Escherichia coli collected in Air sac: 0 Logarithmic number of collected cells per 1 g of tissue
  Escherichia coli collected in Lung: 0 Logarithmic number of collected cells per 1 g of tissue
  Escherichia coli collected in Trachea: 0 Logarithmic number of collected cells per 1 g of tissue
  Chickens developing disease in air sac (naked eye observation): 1
  No. of dead chickens: 0
[8]; 50 ppm in feed for 5 days
  Escherichia coli collected in Air sac: 0 Logarithmic number of collected cells per 1 g of tissue
  Escherichia coli collected in Lung: 0 Logarithmic number of collected cells per 1 g of tissue
  Escherichia coli collected in Trachea: 0 Logarithmic number of collected cells per 1 g of tissue
  Chickens developing disease in air sac (naked eye observation): 0
  No. of dead chickens: 0
[9]
  MIC: 0.05 mg/L
[10]
  MIC: 0.2 mg/L
[11]
  MIC: 0.025 mg/L
[12]
  MIC: 0.05 mg/L
[13]
  MIC: 0.05 mg/L
[14]
  MIC: 0.05 mg/L
[15]
  MIC: 0.05 mg/L
[16]
  MIC: 0.05 mg/L
[17]
  MIC: 0.025 mg/L
[18]
  MIC: 0.05 mg/L
[19]
  MIC: 0.2 mg/L
[20]
  MIC: 0.025 mg/L
[21]
  MIC: 0.05 mg/L
[22]
  MIC: 0.1 mg/L
